Broadly, the melting point is the temperature, or range, at which the solid turns liquid.

Melting point data for 86 compounds are collected here from a melting point compilation (Tetko et al.; mined from patent text by program, amines drawn as free bases though some values may be those of a salt).

In turn, `CN(CC(=O)Nc1ccc(Cl)cc1)C(=O)OC(C)(C)C` returned a melting point of 126 to 128 °C.
Compound `N#CCCNC(=O)c1cccc(-c2cccn3nc(Nc4cccc(C(F)(F)F)c4)nc23)c1` yielded a melting point of 214 to 215 °C.
With `O=C(O)C1=Cc2cc3c(cc2OC1C(F)(F)F)OCO3` (stereo unspecified) the figure was 246 to 248 °C; with `Brc1nc2ncnc(NCc3ccccc3)c2[nH]1`, 233 to 235 °C; with `O=C1CCCN1CCCC(=O)N1CCC(C2c3ncc(Br)cc3CCc3cc(Cl)cc(Br)c32)CC1` (single isomer, unassigned; (+)), 127 to 128 °C.
The same measure for `CCOC(=O)COc1ccc(CCl)cc1OC`: 64 to 66 °C; for `O=Cc1cc(Cl)cc(C(=O)O)c1O`: 218 °C; for `Cc1[nH]cnc1CSCCN=C(NCCCc1c[nH]cn1)NC(=O)c1ccccc1`: 98.5 to 100 °C.
With `Cc1c(C)c2c(c(C)c1NC(=O)OC(C)(C)C)C(c1ccc(C(C)C)cc1)CO2` (stereo unspecified) the figure was 121 to 122 °C; with `NNc1nc(Cl)nc2c(Cl)cc(Cl)cc12`, over 280 °C; with `CCOC(=O)c1ccc(N(Cc2ccc(Cl)cc2)C(C)=O)cc1`, 65 to 66 °C.
In turn, `Cc1ccc(Cn2c(C)cc(C)c(C#N)c2=O)cc1` had a melting point of 178 to 181 °C.
The same measure for `CC(C)(C)c1cc(C(=O)COc2ccc(C(=O)O)c(O)c2)cc(C(C)(C)C)c1O`: 164 to 165 °C; for `CC(C)c1cc(S(=O)(=O)C(C)C)c(C(C)C)cc1C#N`: 130 to 134 °C; for `CC1(C)COC(c2ccc(N)c(N)c2)(c2cccs2)OC1`: 178 °C.
The same measure for `CSc1c(F)ccc2onc(OCCNC(=O)OC(C)(C)C)c12`: 91 to 92 °C; for `COC=C(C(=O)OC)c1ccccc1Oc1ccn(-c2ccc(Cl)cc2)n1`: 109 to 110 °C; for `O=C(Nc1ccc(-n2nccn2)c(F)c1)OCc1ccccc1`: 99.5 to 101 °C.
The same measure for `CC(C)n1nc(-c2c(-c3ccccc3)nn3ccc(OCC(=O)N(C)C)cc23)ccc1=O`: 189 to 190 °C; for `Cn1nc(C(F)(F)F)cc1Oc1cc(Cl)c(Cl)cc1[N+](=O)[O-]`: 99 to 100 °C; for `O=[N+]([O-])c1cc(S(=O)(=O)C(F)(F)F)[nH]c1-c1ccc(Cl)cc1`: 97 to 99 °C.
In turn, `CCOCc1nc2c(N)nc3ccccc3c2n1CC(C)(C)O` yielded a melting point of 190 to 193 °C.
Compound `CC(C)(C)NC(=O)COc1cc2c(cc1C#Cc1ccccc1)NC(=O)CC(c1cccc(C#N)c1)=N2` gave a melting point of over 250 °C.
With `CCOC(=O)Cc1ccc(OCCCN2CCC(C(O)(c3ccc(F)cc3)c3ccc(F)cc3)CC2)c(OC)c1` the figure was 110 to 112 °C; with `CC(=O)Nc1nc(CCc2ccc(N)cc2)c(-c2ccc(S(C)(=O)=O)cc2)s1`, 202 to 204 °C; with `O=C1CSc2ccc(CO)nc2N1`, 120 to 135 °C.
In the case of `COc1cc(NC(=O)CCCCCN2CC(C)NC(C)C2)c2nccc(C)c2c1` (stereo unspecified), the melting point lay in the range of 94 to 96 °C.
In the case of `CC(C)Oc1cc(CCCOc2nc(Cc3ccccc3)sc2CC(=O)O)n(Cc2ccc(Cl)cc2Cl)n1`, the melting point fell in the range of 106 to 108 °C.
The same measure for `CNc1ccc(C=CC(=O)N2CCc3c([nH]c4ccccc34)C2c2ccc3c(c2)CCO3)cn1` (stereo unspecified): 171 °C; for `CN(C)Nc1c([N+](=O)[O-])cc(C(F)(F)F)c(N)c1[N+](=O)[O-]`: 150 to 154 °C; for `O=C(CCc1ccccc1)N[C@H](Cc1ccc(C(F)(F)F)cc1)[C@@H](O)c1ccccc1F` (racemic): 124 to 125 °C.
The same measure for `CC1=Nc2cc(Cl)c(S)cc2S(=O)(=O)N1`: 304 to 305 °C.
With `O=C(C#Cc1ccc(Br)cc1)Nc1ccccc1` the figure was 159 to 160 °C; with `CC(C)(C)c1nc(C=C2CCOC2=O)nc(C(C)(C)C)c1O`, 158 to 160 °C.
Compound `COc1c(Cl)ccc(-c2nc(N)c(C(C)OC)c(C(=O)O)n2)c1F` (stereo unspecified) yielded a melting point of 165 to 167 °C.
The same measure for `CC(=O)c1ccc(Cn2c3c(c4cc(F)cc(F)c42)CCCC3CC(=O)O)cc1` (stereo unspecified): 163 to 164 °C; for `C=CCN(CC=C)Cc1noc(-c2ncn3c2[C@@H]2CCN2C(=O)c2ccccc2-3)n1`: 147 to 150 °C.
With `CN1C2C=C(c3c[nH]c4ccc(NC(=N)c5cccs5)cc34)CC1CC2` (stereo unspecified) the figure was 93 to 95 °C; with `COc1cc(C(=O)O)ccc1Cc1c(Cl)n(C)c2cc(Cl)c(CCNC(=O)N(C)C)cc12`, 207 °C; with `O=C(O)/C=C/c1ccc(-c2nc3c(=O)n(CCC4CCCCCC4)c(=O)n(CCC4CCCCCC4)c3[nH]2)cc1`, over 250 °C.
With `Cc1oc2c(C)c(C)c(NC(=O)c3ccccc3)c(C)c2c1-c1ccc(C(C)C)cc1` the figure was 225 to 227 °C; with `COc1nc(N)nc(SC(F)F)n1`, 146 to 150 °C.
Take `COC(=O)c1cc(CCNc2ncnc3nccnc23)ccc1Oc1cc(C(F)(F)F)ccn1`: the melting point was in the range of 171 to 172 °C.
Compound `COc1cc(N2CCC(N3CCCN(C)CC3)CC2)ccc1Nc1ncc2ccc(-c3ccccc3N(C)S(C)(=O)=O)n2n1` returned a melting point of 100 to 109 °C.
The same measure for `COc1ccc(-c2[nH]nc3c2CCc2ccccc2-3)cc1`: 161 to 163 °C.
The same measure for `COc1ccc(-c2ccc(F)cc2F)cc1`: 73 to 76 °C.
The same measure for `COC(=O)c1nc(CI)n(-c2ccc(Cl)cc2C(=O)c2ccccc2)n1`: 139 to 142 °C; for `Cc1cc(-c2cc(C(F)(F)F)nc(-n3cnc(-c4ccc(S(N)(=O)=O)cc4)c3)n2)ccc1C(F)(F)F`: 287 °C; for `CC1Cc2ccc(Br)cc2C(c2ccc(N)cc2)=NN1C(N)=O` (stereo unspecified): 218 to 221 °C.
Consider `Cc1nc(NCCc2ccccc2)sc1-c1ccnc(Nc2ccc(N3CCOCC3)cc2)n1`, for which the melting point lay within 226 to 228 °C.
The same measure for `COC(=O)CCCc1cc2nc(Cl)ccc2n1S(=O)(=O)c1ccc2c(c1)CCN2C(C)=O`: 123 °C; for `COc1cccc([C@H]2O[C@H](CC(=O)NCCCOc3ccc(CC(=O)O)cc3)C(=O)N(CC(C)(C)CO)c3ccc(Cl)cc32)c1OC`: 125 to 128 °C.
The same measure for `CC1C(C/C=C/c2ccccc2)C(=O)N(Cc2ccccc2)c2ccccc2N1C(=O)CN1C(=O)c2ccccc2C1=O` (stereo unspecified): 262 to 264 °C; for `O=C(OC(c1ccccc1)c1ccccc1)C(C1CC(Cl)=NO1)N1C(=O)c2ccccc2C1=O` (stereo unspecified): 178 to 179 °C; for `COC(=O)[C@H](Cc1c[nH]cn1)NC(=O)[C@H](Cc1ccccc1)NC(=O)OCc1ccccc1`: 113 to 116 °C.
With `Brc1ccc(-c2cn([C@H]3CN4CCC3CC4)nn2)s1` the figure was 146 °C.
Regarding `O=[N+]([O-])c1cc(C(F)(F)F)ccc1SCc1ccccc1`, the melting point was in the range of 132 to 136 °C.
The same measure for `COc1cccc(-c2cnc3c(-c4cc(-c5ccccc5)cs4)cnn3c2O)c1`: over 300 °C; for `CCCCCCCCCCCCSC(=S)SC(C)(C#N)CCC(=O)O` (stereo unspecified): 58 to 59 °C.
The same measure for `CC(C)Nc1nc(N2CCOCC2)nc2cscc12`: 202 °C; for `COC(=O)C1=C(C)N(C)C(C)C(C(=O)OC)=C1c1ccc(C(F)(F)F)cc1` (stereo unspecified): 94 to 95 °C; for `CC(=O)c1ccc(C=CC(=O)N2CCc3c([nH]c4ccccc34)C2c2ccc3c(c2)OCO3)cc1O` (stereo unspecified): 217 to 218 °C.
With `CCOc1ccc(-c2nc(C3=CCN(C)CC3)cs2)cc1OCC` the figure was 81.2 to 83.6 °C; with `NC(=S)NCc1ccco1`, 80 to 91 °C.
Take `Cc1sc(C=O)cc1Br`: the melting point stood at 58 °C.
With `Cn1cnnc1COc1nn2c(-c3ccccc3F)nnc2cc1C1CCC1` the figure was 228 °C.
Take `CCCC(=O)c1cnc2cc(Nc3ccc(O)cc3C)sc2c1`: the melting point fell in the range of 228 to 230 °C.
In the case of `COc1ccc(C(=O)c2noc(CC(=O)O)n2)cc1`, the melting point is 126 to 127 °C.
With `O=C(NCCN1CCN(c2cccc(Cl)c2)CC1)c1nsc2ccccc12` the figure was 115 to 117 °C; with `CN(Cc1ccc(C2=NCCN2C(=O)OC(C)(C)C)cc1)C(=O)OCc1ccccc1`, 124 °C; with `C#CCNC(=O)c1cccc(-c2cccc(OCCc3ccc(OC)c(OC)c3)n2)c1`, 142 to 143 °C.
With `CCOC(=O)c1sc(SC(C)C)c2c1CCC(NC(C)=O)C2=O` (stereo unspecified) the figure was 170 to 171 °C; with `CCOC(=O)C=Cc1cc(OCc2ccccc2)ccc1-c1ccc(-c2cccc(C)c2)c(C=O)c1`, 90 to 92 °C.
The same measure for `COc1c2c(c(C3CCCCC3)c3c4c(ccc13)OCO4)CNC2=O`: 244 to 246 °C.
Compound `O=C(C[C@@H](O)C(F)(F)F)N[C@H]1CC[C@H](CCN2CCC(c3cccc4c3CCO4)CC2)CC1` displayed a melting point of 189 °C.
With `Nc1cccc(C=Cc2ccc3ccccc3n2)c1` the figure was 158 to 160 °C.
Regarding `CS(=O)(=O)c1ccc(C2=C(c3ccccc3)C(=O)N(C3CC3)C2)cc1`, the melting point fell in the range of 144 to 146 °C.
With `CC(C)(C)OC(=O)N1CCCC1C(=O)NCCC(N)=O` (stereo unspecified) the figure was 175 °C.
`CC(C)N(Sc1ccc([N+](=O)[O-])cc1C(Cl)(Cl)Cl)C(C)C`: the melting point was 104 °C.
The same measure for `CC(C)(C)C(NC(=O)c1ccc(Cl)cc1)NC(Nc1cccnc1)=C(C#N)C#N` (stereo unspecified): 213 to 214 °C; for `O=C1C2CCC(N1c1cccs1)n1c(=O)n(-c3ccccc3)c(=O)n12` (stereo unspecified): 238 to 244 °C; for `CCOC(=O)c1ccc2cccc(N)c2c1`: 97 to 98 °C.
With `CCOP(=O)(/C=C/c1cn(-c2ccccc2)nc1OCc1ccc(OCc2nc(-c3cccc(CC(=O)O)c3)oc2C)c(OC)c1)OCC` the figure was 174 to 175 °C; with `CC(=NO)c1ccnc(N)c1`, 215 to 217 °C; with `O=C(O)CON=C1CCCc2cc(OCCn3ccnc3)ccc21`, 193 to 195 °C.
With `CCCCCS(=O)(=O)NC(=O)/C=C/c1cc(OC2CCOCC2)nn1Cc1ccc(Cl)cc1Cl` the figure was 154 to 157 °C.
